Among the data in patent US5604253A, “N-benzylindol-3-yl propanoic acid derivatives as cyclooxygenase inhibitors” (priority 1995, dated 1997) are IC50 and ED30 values, retold here.

One assay concerns the target cyclooxygenase-1 (Homo sapiens, UniProt P23219). Nature of the assay: cell-based. To be noted: PGE2 production, human U-937 cells, 10 μM arachidonic acid; read-out: Cox-1 IC50. The method, then: (§1) Compounds were tested as inhibitors of cyclooxygenase activity in whole cell cyclooxygenase assays. Both of these assays measured prostaglandin E2 synthesis in response to arachidonic acid, using a radioimmunoassay. Cells used for these assays were human osteosarcoma 143 cells (which specifically express cyclooxygenase-2) and human U-937 cells (which specifically express cyclooxygenase-1). In these assays, 100% activity is defined as the difference between prostaglandin E2 synthesis in the absence and presence of arachidonate addition.
(§2) For cyclooxygenase assays, osteosarcoma cells are cultured in 1 mL of media in 24-well multidishes (Nunclon) until confluent (1-2×10^5 cells/well). U-937 cells are grown in spinner flasks and resuspended to a final density of 1.5×10^6 cells/mL in 24-well multidishes (Nunclon). Following washing and resuspension of osteosarcoma and U-937 cells in 1 mL of Hanks balanced salts solution (HBSS), 2 μL of a DMSO solution of test compound or DMSO vehicle is added, and samples gently mixed. All assays are performed in triplicate. Samples are then incubated for 5 or 15 minutes at 37° C., prior to the addition of arachidonic acid. Arachidonic acid (peroxide-free, Cayman Chemical) is prepared as a 10 mM stock solution in ethanol and further diluted 10-fold in HBSS. An aliquot of 10 μL of this diluted solution is added to the cells to give a final arachidonic acid concentration of 10 μM. Control samples are incubated with ethanol vehicle instead of arachidonic acid. Samples are again gently mixed and incubated for a further 10 min at 37° C. For osteosarcoma cells, reactions are then stopped by the addition of 100 μL of 1N HCl, with mixing and by the rapid removal of the solution from cell monolayers. For U-937 cells, reactions are stopped by the addition of 100 μL of 1N HCl, with mixing. Samples are then neutralized by the addition of 100 μL of 1N NaOH and PGE2 levels measured by radioimmunoassay.
(§3) In the assay, inhibition is determined by measuring the amount of prostaglandin E2 (PGE2) synthesized in the presence of arachidonic acid, cyclooxygenase-1 or cyclooxygenase-2 and a putative inhibitor.

A further assay addresses T1, cyclooxygenase-2 (Homo sapiens, UniProt P35354).
T1 sequence (P35354 18-604): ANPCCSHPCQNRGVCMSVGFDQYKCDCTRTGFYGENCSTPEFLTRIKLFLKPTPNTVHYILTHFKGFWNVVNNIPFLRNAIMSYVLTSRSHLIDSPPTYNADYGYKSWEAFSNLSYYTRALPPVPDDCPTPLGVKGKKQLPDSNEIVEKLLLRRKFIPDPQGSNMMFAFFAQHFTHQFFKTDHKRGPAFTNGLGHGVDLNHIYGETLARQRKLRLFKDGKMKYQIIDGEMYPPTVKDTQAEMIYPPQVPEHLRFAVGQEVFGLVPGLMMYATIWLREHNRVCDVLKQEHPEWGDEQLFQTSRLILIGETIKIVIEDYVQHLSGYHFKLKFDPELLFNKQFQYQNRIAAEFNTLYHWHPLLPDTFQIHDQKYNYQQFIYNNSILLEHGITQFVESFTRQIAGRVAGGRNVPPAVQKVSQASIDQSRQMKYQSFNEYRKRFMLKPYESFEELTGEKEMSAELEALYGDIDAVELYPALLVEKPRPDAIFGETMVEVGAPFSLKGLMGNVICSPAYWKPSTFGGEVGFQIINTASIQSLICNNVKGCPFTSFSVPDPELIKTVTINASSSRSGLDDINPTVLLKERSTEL
Kind of assay: cell-based. To be noted: PGE2 production, human osteosarcoma 143 cells, 10 μM arachidonic acid; read-out: Cox-2 IC50. How it is done: as §1, §2, §3

The next assay has as its system Rat Paw Edema. Kind of assay: Rat paw edema assay (carrageenan). The format is in vivo, Sprague-Dawley rat. How it is done: Male Sprague-Dawley rats (150-200 g) are fasted overnight and are given po either vehicle (1% methocel or 5% Tween 80) or a test compound. One hr later, a line is drawn using a permanent marker at the level above the ankle in one hind paw to define the area of the paw to be monitored. The paw volume (V0) is measured using a plethysmometer (Ugo-Basile, Italy) based on the principle of water displacement. The animals are then injected subplantarly with 50 μl of 1% carrageenan solution in saline (FMC Corp, Maine) into the paw using an insulin syringe with a 25-gauge needle (i.e., 500 μg carrageenan per paw). Three hr later, the paw volume (V3) is measured and the increases in paw volume (V3 -V0) are calculated. The animals are sacrificed by CO2 asphyxiation and the absence or presence of stomach lesions scored. Data is compared with the vehicle-control values and percent inhibition calculated. All treatment groups are coded to eliminate observer bias.

Setting [1] is: edema inhibition, rat, po 1 hr before carrageenan, paw volume at 3 hr, read-out: ED30.

Like-named read-outs stand apart in the source and are kept apart here.

A word on the IC50: it is the point on the concentration scale where inhibition reaches its midpoint.

Sequence of cyclooxygenase-1 (P23219 24-599): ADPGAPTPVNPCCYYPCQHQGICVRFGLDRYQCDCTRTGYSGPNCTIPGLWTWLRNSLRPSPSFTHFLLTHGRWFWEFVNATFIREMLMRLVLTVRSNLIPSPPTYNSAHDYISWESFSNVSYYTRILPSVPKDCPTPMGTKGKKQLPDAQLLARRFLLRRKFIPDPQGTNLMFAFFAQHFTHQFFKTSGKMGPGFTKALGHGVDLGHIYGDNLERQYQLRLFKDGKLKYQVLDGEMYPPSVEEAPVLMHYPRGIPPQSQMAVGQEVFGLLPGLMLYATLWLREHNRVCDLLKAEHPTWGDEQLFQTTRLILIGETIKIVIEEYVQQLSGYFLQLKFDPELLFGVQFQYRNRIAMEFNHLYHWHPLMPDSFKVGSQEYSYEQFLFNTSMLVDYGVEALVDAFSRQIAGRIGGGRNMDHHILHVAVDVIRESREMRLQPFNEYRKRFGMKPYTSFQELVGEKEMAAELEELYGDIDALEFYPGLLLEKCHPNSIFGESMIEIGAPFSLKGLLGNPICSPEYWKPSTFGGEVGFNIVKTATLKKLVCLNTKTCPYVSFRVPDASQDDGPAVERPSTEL

For the compound `COc1ccc2c(c1)c([C@@H]1C[C@H]1C(=O)[O-])c(C)n2Cc1ccc(Br)cc1.[Na+]` (relative stereo) [sodium salt], the values for the half-inhibitory concentration (IC50) at cyclooxygenase-1 and at cyclooxygenase-2 were more than 10000 nM and 46 nM, respectively. `COc1ccc2c(c1)c(C(C)CC(=O)[O-])c(C)n2Cc1ccc(Br)cc1.[Na+]` (racemic) returned an ED30 with Rat Paw Edema (Rattus norvegicus, po, 3 h) of 0.7 mg/kg. On to `COc1ccc2c(c1)c(C(C)CC(=O)[O-])c(C)n2Cc1ccc(Br)cc1.[Na+]` (racemic) [sodium salt], for which the half-inhibitory concentration (IC50) on cyclooxygenase-1 is more than 10000 nM; on cyclooxygenase-2 it was 4 nM. Turning to `COc1ccc2c(c1)c(C(C)C(=O)O)c(C)n2Cc1ccc(Cl)cc1` (stereo not drawn) [MK-555, α-(1-p-chlorobenzyl-2-methyl-5-methoxy-3-indolyl)propionic acid, reference compound], the ED30 with Rat Paw Edema (setting [1]) is 3 mg/kg.

As for `COc1ccc2c(c1)c([C@@H]1C[C@H]1C(=O)[O-])c(C)n2Cc1ccc(Br)cc1.[Na+]` (relative stereo), the ED30 in the assay with Rat Paw Edema (Rattus norvegicus, po, 3 h) was 0.6 mg/kg. As for `COc1ccc2c(c1)c(CC(=O)O)c(C)n2C(=O)c1ccc(Cl)cc1` [Indomethacin, reference compound], in the assay on Rat Paw Edema (setting [1]), the ED30 came to 0.9 mg/kg.
